The values below come from patent US9980943B2, “Methods of treating muscular dystrophy” (BOARD OF REGENTS OF THE NEVADA SYSTEM OF HIGHER EDUCATION, …, priority 2013, dated 2018).

SMILES strings stand for the structures.

Common to all, as to type: cell-based, mouse
Assay [1] has as its system α7 integrin (LacZ reporter in α7+/LacZ myotubes). The assay can be described thus: Myotube α7 integrin FDG assay (Burkin assay in myotubes, 96-well). The note with it: myotubes.
For assay [2], the system named is α7 integrin (LacZ reporter in α7βgal+/− myoblasts). The assay can be described thus: Myoblast α7+/LacZ integrin FDG assay (Burkin assay in myoblasts, 96-well). The conditions noted are these: α7+/LacZ myoblasts, 96-well.
For assay [3], the system named is β-galactosidase in CMV-LacZ C2C12 myotubes. The assay can be described thus: CMV-LacZ secondary screen in C2C12 myotubes (β-Gal stabilizing assay). The note with it: for CMV-LACZ in Myotubes, signal relative to DMSO: C2C12 CMV-LacZ myotubes, fold relative to DMSO; for CMV-LACZ in Myotubes (β-galactosidase activity relative to DMSO): CMV-LacZ C2C12 myotubes, 96-well format. In short, it runs like this: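 First, C2C12 myoblasts were transfected with a linearized CMV-LACZ vector and clonal lines selected by FDG β-gal assay. Then cells were exposed to compounds at 0.5, 1, 5, 10, 20 and 40 μM in 96-well format, two replicates each, and β-gal measured.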

For the molecule `CCCCNC(=O)CSc1nnc(Cc2ccc(Cl)c(Cl)c2)c(=O)[nH]1` [MLS001177259-01], the “Burkin Assay in Myotubes, α7 integrin LacZ reporter signal relative to DMSO” value is 0.948 in assay [1] (0.5 uM); 1.053 in assay [1] (1 uM); 0.9988 in assay [1] (5 uM); 1.044 in assay [1] (10 uM); 0.8187 in assay [1] (20 uM); 0.9237 in assay [1] (40 uM). For the same molecule, the “Burkin Assay in Myoblasts, signal relative to DMSO” value was 0.9606 in assay [2] (0.5 uM); 0.9896 in assay [2] (1 uM); 0.9735 in assay [2] (5 uM); 0.9165 in assay [2] (10 uM); 0.7694 in assay [2] (20 uM); 0.7773 in assay [2] (40 uM). Besides, the “CMV-LACZ in Myotubes, signal relative to DMSO” value in assay [3] (5 uM) is on record as 0.9462; in assay [3] (10 uM), 0.7316; in assay [3] (20 uM), 0.8543; in assay [3] (40 uM), 1.1.

Consider `COC(=O)C(=O)C/C(=N/Nc1ncnc2ccccc12)c1ccc(Cl)cc1` [MLS001174719-01], for which the “Burkin Assay in Myotubes (signal relative to DMSO)” value was found to be 1.135 in assay [1] (0.5 uM); 1.001 in assay [1] (1 uM); 1.128 in assay [1] (5 uM); 1.034 in assay [1] (10 uM); 0.9771 in assay [1] (20 uM); 0.7374 in assay [1] (40 uM). The “Burkin Assay in Myoblasts, value relative to DMSO” value is recorded as 1.053 in assay [2] (0.5 uM); 1.048 in assay [2] (1 uM); 1.013 in assay [2] (5 uM); 0.848 in assay [2] (10 uM); 0.7524 in assay [2] (20 uM); 0.5265 in assay [2] (40 uM). The “CMV-LACZ in Myotubes, signal relative to DMSO” value is reported as 0.8551 in assay [3] (5 uM), 0.832 in assay [3] (10 uM), 0.9254 in assay [3] (20 uM) and 1.108 in assay [3] (40 uM).

In the case of `CCc1nnc(NC(=O)c2ccc(S(=O)(=O)NCC(C)C)cc2)s1` [MLS000027478-01], the “Burkin Assay in Myotubes, α7 integrin LacZ reporter signal relative to DMSO” value is 1.0222 in assay [1] (0.5 uM); 0.9043 in assay [1] (1 uM); 0.984 in assay [1] (5 uM); 0.9583 in assay [1] (10 uM); 0.9854 in assay [1] (20 uM); 0.9115 in assay [1] (40 uM). Moreover, the “Burkin Assay in Myoblasts, signal relative to DMSO” value in assay [2] (0.5 uM) is 0.9552; in assay [2] (1 uM), 0.9044; in assay [2] (5 uM) it was 0.9721; in assay [2] (10 uM), 0.9209; in assay [2] (20 uM), 0.9145; in assay [2] (40 uM), 0.816. Also, the “CMV-LACZ in Myotubes, signal relative to DMSO” value came to 0.9489 in assay [3] (5 uM), 0.924 in assay [3] (10 uM), 0.9443 in assay [3] (20 uM) and 0.979 in assay [3] (40 uM).

`O=C(N/N=C/c1cn[nH]c1-c1ccc(F)cc1)c1ccncc1` [MLS000698686-01]: the “Burkin Assay in Myotubes (signal relative to DMSO)” value in assay [1] (0.5 uM) is 0.8838; in assay [1] (1 uM) it was 0.6159; in assay [1] (5 uM) it was 1.013; in assay [1] (10 uM), 0.966; in assay [1] (20 uM), 0.6986; in assay [1] (40 uM), 0.9722. Further, the “Burkin Assay in Myoblasts, value relative to DMSO” value in assay [2] (0.5 uM) is on record as 1.037; in assay [2] (1 uM) it was 1.018; in assay [2] (5 uM), 1.054; in assay [2] (10 uM), 1.075; in assay [2] (20 uM), 0.8456; in assay [2] (40 uM), 0.8252. Besides, the “CMV-LACZ in Myotubes, signal relative to DMSO” value was 0.8364 in assay [3] (5 uM), 0.9727 in assay [3] (10 uM), 0.8864 in assay [3] (20 uM) and 0.8864 in assay [3] (40 uM).

For the molecule `COC(=O)c1ccccc1NC(=O)c1cc[n+]([O-])cc1` [MLS001167169-01], the “Burkin Assay in Myotubes, α7 integrin LacZ reporter signal relative to DMSO” value was 0.8925 in assay [1] (0.5 uM); 0.9375 in assay [1] (1 uM); 1.041 in assay [1] (5 uM); 0.9696 in assay [1] (10 uM); 1.3902 in assay [1] (20 uM); 0.6262 in assay [1] (40 uM). Also, the “Burkin Assay in Myoblasts, signal relative to DMSO” value in assay [2] (0.5 uM) was 1.032; in assay [2] (1 uM), 0.8858; in assay [2] (5 uM), 0.9547; in assay [2] (10 uM), 0.9378; in assay [2] (20 uM), 0.8133; in assay [2] (40 uM), 0.9062. For the same molecule, the “CMV-LACZ in Myotubes, signal relative to DMSO” value in assay [3] (5 uM) came to 0.9323; in assay [3] (10 uM), 1.009; in assay [3] (20 uM) it was 1.085; in assay [3] (40 uM), 1.103.

Regarding `NS(=O)(=O)c1ccc(NC(=O)c2cc(-c3ccccc3O)n[nH]2)cc1` [MLS001214443-01], the “Burkin Assay in Myotubes (signal relative to DMSO)” value in assay [1] (0.5 uM) is listed as 0.8262; in assay [1] (1 uM), 0.9018; in assay [1] (5 uM), 0.9442; in assay [1] (10 uM), 1.193; in assay [1] (20 uM) it was 1.154; in assay [1] (40 uM), 1.083. In addition, the “Burkin Assay in Myoblasts, value relative to DMSO” value in assay [2] (0.5 uM) amounted to 0.9203; in assay [2] (1 uM), 0.8074; in assay [2] (5 uM), 0.7787; in assay [2] (10 uM), 0.8173; in assay [2] (20 uM), 0.9132; in assay [2] (40 uM) it was 0.9313. For the same molecule, the “CMV-LACZ in Myotubes (β-galactosidase activity relative to DMSO)” value turned out to be 0.9737 in assay [3] (5 uM), 1.072 in assay [3] (10 uM), 0.9507 in assay [3] (20 uM) and 0.9022 in assay [3] (40 uM).
